These results are taken from patent US6350776B1, “Method of treating proliferative disease with lycopene and alpha-tocopherol” (priority 1999, dated 2002).

For assay [1], the system named is colon carcinoma cells (Caco-2). Put plainly: Cell proliferation assay (thymidine incorporation), Caco-2. It counts as cell-based, human. Conditions: 50 μM alpha-tocopherol, lycopene 0 μM, 24 hours, vs solvent control. The procedure:
(§1) Culture media and antibiotics were from Gibco (Grand Island, N.Y., USA). Fetal calf serum was from PAA Labor (Linz, Austria), Human prostate carcinoma, androgen insensitive, cell lines DU-145 and PC-3, colon carcinoma cell line Caco-2, hepatoma cell line HepG2, and rat aortic smooth muscle cell line A7r5 were from American Type Culture Collection (Rockville, Md., USA). DU-146 cells were grown in minimum essential medium (EM), PC-3 cells in F-12K medium, both containing antibiotics and 10% fetal calf serum (FCS). Caco-2 cells were grown in MEM containing 20% FCS. HepG2 cells were grown in MEM containing 10% FCS, and A7r5 cells were grown in DMEM containing 10% FCS.
(§2) Cell proliferation was assayed using two methods, cell count and thymidine incorporation:
(§3) Thymidine incorporation. Colon carcinoma cells (Caco-2) and hepatoma cells (HepG2) seeded into 6 multiwell plates (30,000 cells/well) after treatment were pulsed with [^3H] thymidine (0.5 μCi per well) for two hours. […] The radioactivity incorporated into the acid-insoluble material was determined in a liquid scintillation analyzer.
(§4) The values in Table 1 are expressed as percent of inhibition of proliferation as compared to proliferation of control cells treated with solvent alone. […] Proliferation was assessed as indicated in the Materials and Methods. […]
Background: Uptake of a labelled nucleoside into DNA is a usual measure of proliferation.

In assay [2] the test system is Prostate cancer cells (DU-145). Put plainly: Cell proliferation assay (cell count), DU-145. It counts as cell-based, human. The note with it: for potentiation of the anti-proliferative effect of lycopene: DU-145, 50 μM of the compound with 1 μM lycopene (FIG. 3). As to the method:
(§5) Culture media and antibiotics were from Gibco (Grand Island, N.Y., USA). Fetal calf serum was from PAA Labor (Linz, Austria), Human prostate carcinoma, androgen insensitive, cell lines DU-145 and PC-3, colon carcinoma cell line Caco-2, hepatoma cell line HepG2, and rat aortic smooth muscle cell line A7r5 were from American Type Culture Collection (Rockville, Md., USA). DU-146 cells were grown in minimum essential medium (EM), PC-3 cells in F-12K medium, both containing antibiotics and 10% fetal calf serum (FCS). Caco-2 cells were grown in MEM containing 20% FCS. HepG2 cells were grown in MEM containing 10% FCS, and A7r5 cells were grown in DMEM containing 10% FCS. Cell proliferation was assayed using two methods, cell count and thymidine incorporation: Cell count. Cells were seeded into 6-multiwell plates (20,000 cells/well). When cells reached approximately 50% confluence, the indicated concentrations of the compounds were added. THF was added to control cells to account for the effect of the solvent in the compound solutions. Cells were washed, trypsinized, resuspended and counted in duplicate at the indicated times by trypan blue dye exclusion with a hemocytometer. […] The values in Table 1 are expressed as percent of inhibition of proliferation as compared to proliferation of control cells treated with solvent alone. Prostate cancer cells (DU-145), hepatoma cells (HepG2), colon carcinoma cells (Caco-2) and rat aortic smooth muscle cells (A7r5) were treated with different concentrations of lycopene as indicated and 50 μM alpha-tocopherol for 24 hours. […] Proliferation was assessed as indicated in the Materials and Methods. Data are means±SD of five experiments in duplicate.

The test system of assay [3] is hepatoma cells (HepG2). Put plainly: Cell proliferation assay (thymidine incorporation), HepG2. Type of assay: cell-based, human. Conditions: 50 μM alpha-tocopherol, lycopene 0 μM, 24 hours, vs solvent control. As to the method:
as §1, §2, §3, §4

The subject of assay [4] is rat aortic smooth muscle cells (A7r5). Put plainly: Cell proliferation assay (cell count), A7r5. Conditions: 50 μM alpha-tocopherol, lycopene 0 μM, 24 hours, vs solvent control. It counts as cell-based. As to the method:
as §5, with “alone.” for “alone. Prostate cancer cells (DU-145), hepatoma cells (HepG2), colon carcinoma cells (Caco-2) and rat aortic smooth muscle cells (A7r5) were treated with different concentrations of lycopene as indicated and 50 μM alpha-tocopherol for 24 hours.”, “Data are means±SD of five experiments in duplicate.” left out

Assay [5] concerns prostate carcinoma cell proliferation. The note with it: in vitro studies, background; cited from earlier work.

SMILES strings stand for the structures.

For the molecule `Cc1c(C)c2c(c(C)c1O)CCC(C)(CCCC(C)CCCC(C)CCCC(C)C)O2` (racemic) [Alpha-Tocopherol, DL-alpha-tocopherol], the “percent of inhibition of proliferation” value in assay [1] is listed as 25 ± 3%; in assay [2] (DU 145, 50 μM alpha-tocopherol, lycopene 0 μM, 24 hours, vs solvent control), 40 ± 6%; in assay [3], 5 ± 1%; in assay [4], 40 ± 5%. In addition, the “potentiation of the anti-proliferative effect of lycopene” value (shortened to “potentiation”) in assay [2] was “potentiates the anti-proliferative effect of lycopene”.
For `Cc1cc(O)c(C)c2c1O[C@](C)(CCC[C@H](C)CCC[C@H](C)CCCC(C)C)CC2` (racemic) [β-tocopherol, DL-β-tocopherol], in assay [2], the “potentiation” value is “this effect is specific to alpha-tocopherol as compared to other anti-oxidants”.
On the same count and under the same terms, in the case of `O=C1O[C@H]([C@@H](O)CO)C(O)=C1O` [ascorbic acid, L-ascorbic acid] it was “this effect is specific to alpha-tocopherol as compared to other anti-oxidants”.
Regarding `CC(C)=CCC/C(C)=C/C=C/C(C)=C/C=C/C(C)=C/C=C/C=C(C)/C=C/C=C(C)/C=C/C=C(\C)CCC=C(C)C` [lycopene], the “concentrations with inhibitory effect on prostate carcinoma cell proliferation” value in assay [5] is at least 50 µM.
In the case of `CC(C)(Sc1cc(C(C)(C)C)c(O)c(C(C)(C)C)c1)Sc1cc(C(C)(C)C)c(O)c(C(C)(C)C)c1` [probucol], in assay [2], the “potentiation” value was “this effect is specific to alpha-tocopherol as compared to other anti-oxidants”.
